Data reported in ChEMBL document CHEMBL1201861, “Genomics of Drug Sensitity in Cancer screening data, Wellcome Trust Sanger Institute”.

Columns and labels:
Assay in all cases: cells
Settings in all cases: Homo sapiens
[1] = test system: EW-3; assay type: functional, cell-based;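 also: cell viability assay read-out, IC50 reflects inhibition of growth of the EW-3 cells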
Description: SANGER: Inhibition of human EW-3 cell growth in a cell viability assay.

[2] = test system: LS-513; assay type: functional, cell-based
Description: SANGER: Inhibition of human LS-513 cell growth in a cell viability assay.

[3] = test system: ALL-PO; assay type: functional, cell-based;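 also: growth inhibition of ALL-PO cells, read out by a cell viability assay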
Description: SANGER: Inhibition of human ALL-PO cell growth in a cell viability assay.

[4] = test system: COLO-684; assay type: functional, cell-based
Description: SANGER: Inhibition of human COLO-684 cell growth in a cell viability assay.

[5] = test system: A498; assay type: functional, cell-based;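 also: growth inhibition of human A498 cells, read out with a cell viability assay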
Description: SANGER: Inhibition of human A498 cell growth in a cell viability assay.

[6] = test system: NH-12; assay type: functional, cell-based;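 also: growth inhibition of NH-12 cells, read out with a cell viability assay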
Description: SANGER: Inhibition of human NH-12 cell growth in a cell viability assay.

[7] = test system: NCI-H1650; assay type: functional, cell-based;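 also: growth inhibition of human NCI-H1650 cells measured by a cell viability assay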
Description: SANGER: Inhibition of human NCI-H1650 cell growth in a cell viability assay.

[8] = test system: IST-MES1; assay type: functional, cell-based;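 also: growth inhibition of IST-MES1 cells, measured with a cell viability assay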
Description: SANGER: Inhibition of human IST-MES1 cell growth in a cell viability assay.

[9] = test system: HL-60; assay type: functional, cell-based;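 also: growth inhibition of human HL-60 cells, read out with a cell viability assay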
Description: SANGER: Inhibition of human HL-60 cell growth in a cell viability assay.

[10] = test system: HuTu80; assay type: functional, cell-based, HUTU-80;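 also: growth inhibition of HuTu80 human cells, determined with a cell viability readout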
Description: SANGER: Inhibition of human HUTU-80 cell growth in a cell viability assay.

[11] = test system: KARPAS-299; assay type: functional, cell-based
Description: SANGER: Inhibition of human KARPAS-299 cell growth in a cell viability assay.

[12] = test system: CW-2; assay type: functional, cell-based;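 also: growth inhibition of CW-2 cells, read out by a cell viability assay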
Description: SANGER: Inhibition of human CW-2 cell growth in a cell viability assay.

[13] = test system: EW-11; assay type: functional, cell-based;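 also: growth inhibition of human EW-11 cells, measured with a cell viability assay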
Description: SANGER: Inhibition of human EW-11 cell growth in a cell viability assay.

[14] = test system: COLO-800; assay type: functional, cell-based;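 also: growth inhibition of COLO-800 cells, read out with a cell viability assay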
Description: SANGER: Inhibition of human COLO-800 cell growth in a cell viability assay.

[15] = test system: LNCaP-Clone-FGC; assay type: functional, cell-based
Description: SANGER: Inhibition of human LNCaP-Clone-FGC cell growth in a cell viability assay.

[16] = test system: COR-L88; assay type: functional, cell-based;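 also: growth inhibition of COR-L88 cells, read out with a cell viability assay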
Description: SANGER: Inhibition of human COR-L88 cell growth in a cell viability assay.

[17] = test system: MHH-NB-11; assay type: functional, cell-based;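 also: growth inhibition of human MHH-NB-11 cells, read out by a cell viability assay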
Description: SANGER: Inhibition of human MHH-NB-11 cell growth in a cell viability assay.

[18] = test system: COLO-829; assay type: functional, cell-based
Description: SANGER: Inhibition of human COLO-829 cell growth in a cell viability assay.

[19] = test system: TGBC24TKB; assay type: functional, cell-based;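 also: growth inhibition of human TGBC24TKB cells, read out with a cell viability assay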
Description: SANGER: Inhibition of human TGBC24TKB cell growth in a cell viability assay.

[20] = test system: LXF-289 cell line; assay type: functional, cell-based
Description: SANGER: Inhibition of human LXF-289 cell growth in a cell viability assay.

[21] = test system: BB49-HNC; assay type: functional, cell-based;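 also: cell viability assay read-out, reported as inhibition of BB49-HNC cell growth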
Description: SANGER: Inhibition of human BB49-HNC cell growth in a cell viability assay.

[22] = test system: EW-18; assay type: functional, cell-based;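 also: growth inhibition of EW-18 cells, read out by a cell viability assay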
Description: SANGER: Inhibition of human EW-18 cell growth in a cell viability assay.

[23] = test system: LB831-BLC; assay type: functional, cell-based;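 also: growth inhibition of LB831-BLC cells, read out with a cell viability assay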
Description: SANGER: Inhibition of human LB831-BLC cell growth in a cell viability assay.

[24] = test system: OCUB-M; assay type: functional, cell-based;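 also: growth inhibition of the cancer cell line, read out through a cell viability assay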
Description: SANGER: Inhibition of human OCUB-M cell growth in a cell viability assay.

[25] = test system: NB10; assay type: functional, cell-based;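 also: growth inhibition of NB10 cells, read out by a cell viability assay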
Description: SANGER: Inhibition of human NB10 cell growth in a cell viability assay.

[26] = test system: Mo; assay type: functional, cell-based
Description: SANGER: Inhibition of human Mo-T cell growth in a cell viability assay.

[27] = test system: NKM-1; assay type: functional, cell-based;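 also: growth inhibition of NKM-1 cells, read out with a cell viability assay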
Description: SANGER: Inhibition of human NKM-1 cell growth in a cell viability assay.

[28] = test system: NB6; assay type: functional, cell-based;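 also: growth inhibition of NB6 cells, read out by a cell viability assay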
Description: SANGER: Inhibition of human NB6 cell growth in a cell viability assay.

[29] = test system: EKVX; assay type: functional, cell-based;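 also: growth inhibition of human EKVX cells, read out with a cell viability assay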
Description: SANGER: Inhibition of human EKVX cell growth in a cell viability assay.

[30] = test system: TE-8; assay type: functional, cell-based;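 also: growth inhibition of TE-8 cells, measured with a cell viability readout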
Description: SANGER: Inhibition of human TE-8 cell growth in a cell viability assay.

[31] = test system: BT-474; assay type: functional, cell-based
Description: SANGER: Inhibition of human BT-474 cell growth in a cell viability assay.

[32] = test system: C2BBe1; assay type: functional, cell-based;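 also: growth inhibition of C2BBe1 cells, read out through a viability assay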
Description: SANGER: Inhibition of human C2BBe1 cell growth in a cell viability assay.

[33] = test system: RH-1; assay type: functional, cell-based;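 also: growth inhibition of human RH-1 cells, read out with a cell viability assay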
Description: SANGER: Inhibition of human RH-1 cell growth in a cell viability assay.

[34] = test system: SW684; assay type: functional, cell-based;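 also: growth inhibition of human SW684 cells, measured by a cell viability assay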
Description: SANGER: Inhibition of human SW684 cell growth in a cell viability assay.

[35] = test system: OVCAR-4; assay type: functional, cell-based;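 also: growth inhibition of human OVCAR-4 cells, measured with a cell viability assay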
Description: SANGER: Inhibition of human OVCAR-4 cell growth in a cell viability assay.

[36] = test system: DSH1; assay type: functional, cell-based;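 also: growth inhibition of human DSH1 cells, measured with a cell viability readout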
Description: SANGER: Inhibition of human DSH1 cell growth in a cell viability assay.

[37] = test system: COLO-668; assay type: functional, cell-based
Description: SANGER: Inhibition of human COLO-668 cell growth in a cell viability assay.

[38] = test system: CP66-MEL; assay type: functional, cell-based;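 also: growth inhibition of CP66-MEL cells determined in a cell viability assay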
Description: SANGER: Inhibition of human CP66-MEL cell growth in a cell viability assay.

[39] = test system: KY821; assay type: functional, cell-based;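 also: growth inhibition of human KY821 cells, read out by a cell viability assay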
Description: SANGER: Inhibition of human KY821 cell growth in a cell viability assay.

[40] = test system: LB771-HNC; assay type: functional, cell-based;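 also: growth inhibition of LB771-HNC human cells, read out with a cell viability assay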
Description: SANGER: Inhibition of human LB771-HNC cell growth in a cell viability assay.

[41] = test system: D-263MG; assay type: functional, cell-based
Description: SANGER: Inhibition of human D-263MG cell growth in a cell viability assay.

[42] = test system: SW 962; assay type: functional, cell-based;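 also: growth inhibition of human SW962 cells, read out by a cell viability assay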
Description: SANGER: Inhibition of human SW962 cell growth in a cell viability assay.

[43] = test system: HAL-01; assay type: functional, cell-based;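 also: growth inhibition of human HAL-01 cells, read out with a cell viability assay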
Description: SANGER: Inhibition of human HAL-01 cell growth in a cell viability assay.

[44] = test system: BV-173; assay type: functional, cell-based
Description: SANGER: Inhibition of human BV-173 cell growth in a cell viability assay.

[45] = test system: LS-411N; assay type: functional, cell-based
[46] = test system: COLO-320-HSR; assay type: functional, cell-based;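 also: growth inhibition of COLO-320-HSR cells, determined with a cell viability assay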
Description: SANGER: Inhibition of human COLO-320-HSR cell growth in a cell viability assay.

[47] = test system: MSTO-211H; assay type: functional, cell-based
Description: SANGER: Inhibition of human MSTO-211H cell growth in a cell viability assay.

[48] = test system: NCI-H1092; assay type: functional, cell-based;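 also: cell growth inhibition measured with a cell viability assay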
Description: SANGER: Inhibition of human NCI-H1092 cell growth in a cell viability assay.

[49] = test system: LU-134-A; assay type: functional, cell-based
Description: SANGER: Inhibition of human LU-134-A cell growth in a cell viability assay.

[50] = test system: NCI-H1355; assay type: functional, cell-based;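 also: growth inhibition of human NCI-H1355 cells, read out by a cell viability assay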
Description: SANGER: Inhibition of human NCI-H1355 cell growth in a cell viability assay.

[51] = test system: KE-37; assay type: functional, cell-based;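 also: growth inhibition of KE-37 cells, read out with a cell viability assay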
Description: SANGER: Inhibition of human KE-37 cell growth in a cell viability assay.

[52] = test system: LB1047-RCC; assay type: functional, cell-based;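 also: inhibition of cell growth, determined with a cell viability assay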
Description: SANGER: Inhibition of human LB1047-RCC cell growth in a cell viability assay.

[53] = test system: D283 Med; assay type: functional, cell-based
Description: SANGER: Inhibition of human D-283MED cell growth in a cell viability assay.

[54] = test system: SK-UT-1; assay type: functional, cell-based;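 also: growth inhibition of SK-UT-1 cells, measured by a cell viability assay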
Description: SANGER: Inhibition of human SK-UT-1 cell growth in a cell viability assay.

[55] = test system: LB373-MEL-D; assay type: functional, cell-based;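 also: growth inhibition of the cell line, read out in a cell viability assay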
Description: SANGER: Inhibition of human LB373-MEL-D cell growth in a cell viability assay.

[56] = test system: NCI-H526; assay type: functional, cell-based;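 also: growth inhibition of the human NCI-H526 cell line, measured by a cell viability assay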
Description: SANGER: Inhibition of human NCI-H526 cell growth in a cell viability assay.

[57] = test system: SHP77; assay type: functional, cell-based, SHP-77;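 also: growth inhibition of human SHP-77 cells measured by a cell viability assay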
Description: SANGER: Inhibition of human SHP-77 cell growth in a cell viability assay.

[58] = test system: Lu-65; assay type: functional, cell-based;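 also: growth inhibition of Lu-65 cancer cells, read out by a cell viability assay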
Description: SANGER: Inhibition of human LU-65 cell growth in a cell viability assay.

[59] = test system: MPP-89; assay type: functional, cell-based;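 also: growth inhibition of human MPP-89 cells, read out with a cell viability assay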
Description: SANGER: Inhibition of human MPP-89 cell growth in a cell viability assay.

[60] = test system: BB30-HNC; assay type: functional, cell-based;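 also: growth inhibition of the cultured cell line, read out by a cell viability assay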
Description: SANGER: Inhibition of human BB30-HNC cell growth in a cell viability assay.

[61] = test system: JAR; assay type: functional, cell-based;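 also: growth inhibition of human JAR cells determined with a cell viability assay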
Description: SANGER: Inhibition of human JAR cell growth in a cell viability assay.

[62] = test system: GI-ME-N; assay type: functional, cell-based;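 also: growth inhibition of human GI-ME-N cells, read out with a cell viability assay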
Description: SANGER: Inhibition of human GI-ME-N cell growth in a cell viability assay.

[63] = test system: TE-1; assay type: functional, cell-based;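 also: growth inhibition of the human TE-1 cell line, read out with a cell viability assay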
Description: SANGER: Inhibition of human TE-1 cell growth in a cell viability assay.

[64] = test system: NCI-H510A; assay type: functional, cell-based;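 also: growth inhibition of NCI-H510A cells, read out with a cell viability assay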
Description: SANGER: Inhibition of human NCI-H510A cell growth in a cell viability assay.

[65] = test system: L-428; assay type: functional, cell-based
Description: SANGER: Inhibition of human L-428 cell growth in a cell viability assay.

O=c1[nH]c2ccccc2n1C1CCN(Cc2ccc(-c3nc4cc5[nH]cnc5cc4nc3-c3ccccc3)cc2)CC1
IC50 [1]: > 2560 nM | IC50 [2]: > 2560 nM | IC50 [3]: > 2560 nM | IC50 [4]: > 2560 nM | IC50 [5]: 1080 nM | IC50 [6]: 609 nM | IC50 [7]: > 2560 nM | IC50 [8]: > 2560 nM | IC50 [9]: > 2560 nM | IC50 [10]: > 2560 nM | IC50 [11]: > 2560 nM | IC50 [12]: > 2560 nM | IC50 [13]: > 2560 nM | IC50 [14]: > 2560 nM | IC50 [15]: > 2560 nM | IC50 [16]: > 2560 nM | IC50 [17]: > 2560 nM | IC50 [18]: > 2560 nM | IC50 [19]: > 2560 nM | IC50 [20]: 1760 nM | IC50 [21]: > 2560 nM | IC50 [22]: > 2560 nM | IC50 [23]: > 2560 nM | IC50 [24]: > 2560 nM | IC50 [25]: > 2560 nM | IC50 [26]: > 2560 nM | IC50 [27]: > 2560 nM | IC50 [28]: > 2560 nM | IC50 [29]: > 2560 nM | IC50 [30]: > 2560 nM | IC50 [31]: > 2560 nM | IC50 [32]: > 2560 nM | IC50 [33]: > 2560 nM | IC50 [34]: > 2560 nM | IC50 [35]: > 2560 nM | IC50 [36]: 987 nM | IC50 [37]: > 2560 nM | IC50 [38]: > 2560 nM | IC50 [39]: > 2560 nM | IC50 [40]: > 2560 nM | IC50 [41]: > 2560 nM | IC50 [42]: > 2560 nM | IC50 [43]: > 2560 nM | IC50 [44]: > 2560 nM | IC50 [45]: 1250 nM | IC50 [46]: > 2560 nM | IC50 [47]: > 2560 nM | IC50 [48]: > 2560 nM | IC50 [49]: > 2560 nM | IC50 [50]: > 2560 nM | IC50 [51]: 1840 nM | IC50 [52]: > 2560 nM | IC50 [53]: > 2560 nM | IC50 [54]: 1350 nM | IC50 [55]: > 2560 nM | IC50 [56]: > 2560 nM | IC50 [57]: > 2560 nM | IC50 [58]: > 2560 nM | IC50 [59]: > 2560 nM | IC50 [60]: > 2560 nM | IC50 [61]: > 2560 nM | IC50 [62]: > 2560 nM | IC50 [63]: > 2560 nM | IC50 [64]: > 2560 nM | IC50 [65]: > 2560 nM

Fc1cc(-c2cc[nH]/c(=N/c3ccc(-n4cnc(N5CCOCC5)n4)cc3)n2)cc(N2CCOCC2)c1
IC50 [1]: 4230 nM | IC50 [2]: 1140 nM | IC50 [3]: 671 nM | IC50 [4]: 543 nM | IC50 [5]: 171 nM | IC50 [6]: 465 nM | IC50 [7]: 624 nM | IC50 [8]: 1970 nM | IC50 [9]: 546 nM | IC50 [10]: 4230 nM | IC50 [11]: 380 nM | IC50 [12]: > 5120 nM | IC50 [13]: 1210 nM | IC50 [14]: 1990 nM | IC50 [15]: 903 nM | IC50 [16]: 2570 nM | IC50 [17]: 936 nM | IC50 [18]: 520 nM | IC50 [19]: 1040 nM | IC50 [20]: 797 nM | IC50 [21]: > 5120 nM | IC50 [22]: 857 nM | IC50 [23]: 420 nM | IC50 [24]: 3030 nM | IC50 [25]: 1300 nM | IC50 [26]: 1650 nM | IC50 [27]: 425 nM | IC50 [28]: 912 nM | IC50 [29]: 2840 nM | IC50 [30]: 831 nM | IC50 [31]: 1130 nM | IC50 [32]: 764 nM | IC50 [33]: 919 nM | IC50 [34]: 3040 nM | IC50 [35]: 467 nM | IC50 [36]: 709 nM | IC50 [37]: 376 nM | IC50 [38]: 820 nM | IC50 [39]: > 5120 nM | IC50 [40]: 77.7 nM | IC50 [41]: 725 nM | IC50 [42]: > 5120 nM | IC50 [43]: 704 nM | IC50 [44]: 736 nM | IC50 [45]: 198 nM | IC50 [46]: 518 nM | IC50 [47]: > 5120 nM | IC50 [48]: 1760 nM | IC50 [49]: 594 nM | IC50 [50]: 875 nM | IC50 [51]: 289 nM | IC50 [52]: 402 nM | IC50 [53]: 2560 nM | IC50 [54]: 61.6 nM | IC50 [55]: 2190 nM | IC50 [56]: 957 nM | IC50 [57]: 825 nM | IC50 [58]: 1660 nM | IC50 [59]: 3820 nM | IC50 [60]: 122 nM | IC50 [61]: 3300 nM | IC50 [62]: 1440 nM | IC50 [63]: > 5120 nM | IC50 [64]: > 5120 nM | IC50 [65]: 649 nM
